Measurements from patent US20100292205A1, “Pyrimidone Compounds As GSK-3 Inhibitors” (PFIZER INC., priority 2006, published 2010).

The molecules below were run against T1, Recombinant human GSK3β (Homo sapiens, UniProt P49841) (assay: GSK-3β (Glycogen Synthase Kinase) cell free enzyme assay). Conditions: 1 μM; Examples 157-199.
T1 construct: His-tag; made in house; host or cells: Sf9 insect cells / baculovirus
Type: biochemical
How it was run: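 Recombinant human GSK3β, expressed in SF9/baculovirus cells and His-tag purified on Ni-NTA Superflow, was preincubated with test agent for 30 minutes at room temperature. Substrate mix was then added to start the reaction in 8 mM MOPS (pH 7.0), 10 mM magnesium acetate, 0.2 mM EDTA, 1 mM DTT, 2 uM cold ATP, 0.025 uCi/well [33P]ATP (120 uL) and 1.0 uM biotinylated peptide. Reactions ran at RT for 60 min.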

T1 sequence (P49841 whole entry): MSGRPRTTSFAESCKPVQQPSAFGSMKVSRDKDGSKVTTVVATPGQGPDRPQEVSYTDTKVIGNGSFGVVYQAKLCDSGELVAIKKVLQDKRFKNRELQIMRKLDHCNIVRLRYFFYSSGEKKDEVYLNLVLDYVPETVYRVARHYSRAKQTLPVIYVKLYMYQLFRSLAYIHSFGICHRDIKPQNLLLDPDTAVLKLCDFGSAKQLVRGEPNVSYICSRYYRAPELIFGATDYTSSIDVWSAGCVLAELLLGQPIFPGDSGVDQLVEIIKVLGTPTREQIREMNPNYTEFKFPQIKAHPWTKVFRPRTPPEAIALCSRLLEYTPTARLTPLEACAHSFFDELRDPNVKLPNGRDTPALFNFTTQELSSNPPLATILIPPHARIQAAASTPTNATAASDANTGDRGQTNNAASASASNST

Row | Percent inhibition at 1 μM | Structure (SMILES)
1 | 96% | CN(c1nc(-c2ccncc2)cc(=O)n1C)C1CCCN(S(=O)(=O)c2ccccc2)CC1 (stereo not shown) [Example 182, 3-Methyl-2-{methyl[1-(phenylsulfonyl)azepan-4-yl]amino}-6-pyridin-4-ylpyrimidin-4(3H)-one]

Same assay, conditions: 1 μM; Examples 157-199; read-out: Percent inhibition at 1 μM

Row | inhibition at 1 µM | Structure (SMILES)
2 | 99% | Cn1c(NC2CCCN(S(=O)(=O)c3ccccc3)CC2)nc(-c2ccncc2)cc1=O (stereo not shown) [Example 170, 3-Methyl-2-{[1-(phenylsulfonyl)azepan-4-yl]amino}-6-pyridin-4-ylpyrimidin-4(3H)-one]
3 | 61% | Cn1c(NC2CN(S(=O)(=O)c3ccccc3)C2)nc(-c2ccncc2)cc1=O [Example 171, 3-Methyl-2-{[1-(phenylsulfonyl)azetidin-3-yl]amino}-6-pyridin-4-ylpyrimidin-4(3H)-one]
4 | 81% | Cn1c(N2CC[C@@H]3CN(S(=O)(=O)c4ccccc4)C[C@@H]32)nc(-c2ccncc2)cc1=O [Example 172, 3-Methyl-2-[(3a,R6,aR)-5-(phenylsulfonyl)hexahydro-pyrrolo[34-b]pyrrol-1(2H)-yl]-6-pyridin-4-ylpyrimidin-4(3H)-one]
5 | 51% | Cn1c(NC2CCCCN(S(=O)(=O)c3ccccc3)C2)nc(-c2ccncc2)cc1=O (stereo not shown) [Example 173, 3-Methyl-2-{[1-(phenylsulfonyl)azepan-3-yl]amino}-6-pyridin-4-ylpyrimidin-4(3H)-one]
6 | 95% | Cn1c(NC2CCN(S(=O)(=O)c3ccccc3)C2)nc(-c2ccncc2)cc1=O (stereo not shown) [Example 174, 3-Methyl-2-{[1-(phenylsulfonyl)pyrrolidin-3-yl]amino}-6-pyridin-4-ylpyrimidin-4(3H)-one]
7 | 49% | Cn1c(NC2CCN(S(=O)(=O)c3ccccc3)CC2)nc(-c2ccncc2)cc1=O [Example 175, 3-Methyl-2-{[1-(phenylsulfonyl)piperidin-4-yl]amino}-6-pyridin-4-ylpyrimidin-4(3H)-one]
8 | 96% | Cn1c(N[C@H]2CN(S(=O)(=O)c3ccccc3)C[C@@H]2F)nc(-c2ccncc2)cc1=O [Example 176, 2-{[(3S,4S)-4-Fluoro-1-(phenylsulfonyl)pyrrolidin-3-yl]amino}-3-methy!-6-pyridin-4-ylpyrimidin-4(3H)-one]
9 | 97% | Cn1c(N[C@H]2[C@@H]3CN(S(=O)(=O)c4ccccc4)C[C@@H]32)nc(-c2ccncc2)cc1=O [Example 177, 3-Methyl-2-{[(1R,5S,6s)-3-(phenylsulfonyl)-3-azabicyclo[3.1.0]hex-6-yl]amino}-6-pyridin-4-ylpyrimidin-4(3H)-one]
10 | 100% | CN(c1nc(-c2ccncc2)cc(=O)n1C)[C@H]1CC[C@H]2N(S(=O)(=O)c3ccccc3)CC[C@@]2(C)C1 [Example 178, 3-Methyl-2-{methyl[(3a,S5,S7,aR)-3a-methyl-1-(phenylsulfonyl)octahydro-1H-indol-5-yl]amino}-6-pyridin-4-ylpyrimidin-4(3H)-one]
11 | 93% | Cn1c(NC2CCCN(S(=O)(=O)c3ccccc3)C2)nc(-c2ccncc2)cc1=O (stereo not shown) [Example 179, 3-Methy-2-{[1-(phenylsulfonyl)piperidin-3-yl]amino}-6-pyridin-4-ylpyrimidin-4(3H)-one]
12 | 93% | CN(c1nc(-c2ccncc2)cc(=O)n1C)C1CCN(S(=O)(=O)c2ccccc2)C1 (stereo not shown) [Example 180, 3-Methyl-2-{methyl[1-(phenylsulfonyl)pyrrolidin-3-yl]amino}-6-pyridin-4-ylpyrimidin-4(3H)-one]
13 | 96% | CN(c1nc(-c2ccncc2)cc(=O)n1C)C1CCCN(S(=O)(=O)c2ccccc2)CC1 (stereo not shown) [Example 181, 3-Methyl-2-{methyl[1-(phenylsulfonyl)azepan-4-yl]amino}-6-pyridin-4-ylpyrimidin-4(3H)-one]
14 | 100% | CN(c1nc(-c2ccncc2)cc(=O)n1C)[C@@H]1CC[C@H]2N(S(=O)(=O)c3ccccc3)CC[C@@]2(C)C1 [Example 183, 3-Methyl-2-{methyl[(3,aS5,R7,aR)-3a-methyl-1-(phenylsulfonyl)octahydro-1H-indol-5-yl]amino}-6-pyridin-4-ylpyrimidin-4(3H)-one]
15 | 100% | Cn1c(N[C@@H]2CN(S(=O)(=O)c3ccccc3)C[C@@H]2F)nc(-c2ccncc2)cc1=O [Example 184, 2-{[(3R,4S)-4-Fluoro-1-(phenylsulfonyl)pyrrolidin-3-yl]amino}-3-methyl-6-pyridin-4-ylpyrimidin-4(3H)-one]
16 | 101% | CCN(c1nc(-c2ccncc2)cc(=O)n1C)C1CCCN(S(=O)(=O)c2ccccc2)C1 (stereo not shown) [Example 185, 2-{Ethyl[1-(phenylsulfonyl)piperidin-3-yl]amino}-3-methyl-6-pyridin-4-ylpyrimidin-4(3H)-one]
17 | 101% | CCN(c1nc(-c2ccncc2)cc(=O)n1C)C1CCCN(S(=O)(=O)c2ccccc2)CC1 (stereo not shown) [Example 186, 2-{Ethyl[1-(phenylsulfonyl)azepan-4-yl]amino}-3-methyl-6-pyridin-4-ylpyrimidin-4(3H)-one]
18 | 102% | CCN(c1nc(-c2ccncc2)cc(=O)n1C)C1CCN(S(=O)(=O)c2ccccc2)CC1 [Example 187, 2-{Ethyl[1-(phenylsulfonyl)piperidin-4-yl]amino}-3-methyl-6-pyridin-4-ylpyrimidin-4(3H)-one]
19 | 94% | Cn1c(NC[C@H]2CCCN2S(=O)(=O)c2ccccc2)nc(-c2ccncc2)cc1=O [Example 188, 3-Methyl-2-({[(2R)-1-(phenylsulfonyl)pyrrolidin-2-yl]methyl}amino)-6-pyridin-4-ylpyrimidin-4(3H)-one]
20 | 95% | CCN(C[C@H]1CCCN1S(=O)(=O)c1ccccc1)c1nc(-c2ccncc2)cc(=O)n1C [Example 189, 2-(Ethyl{[(2R)-1-(phenylsulfonyl)pyrrolidin-2-yl]methyl}amino)-3-methyl-6-pyridin-4-ylpyrimidin-4(3H)-one]
21 | 35% | Cn1c(NCC2CN(S(=O)(=O)c3ccccc3)C2)nc(-c2ccncc2)cc1=O [Example 190, 3-Methyl-2-({[1-(phenylsulfonyl)azetidin-3-yl]methyl}amino)-6-pyridin-4-ylpyrimidin-4(3H)-one]
22 | 76% | Cn1c(NCC2CCN(S(=O)(=O)c3ccccc3)C2)nc(-c2ccncc2)cc1=O (stereo not shown) [Example 191, 3-Methyl-2-({[1-(phenylsulfonyl)pyrrolidin-3-yl]methyl}amino)-6-pyridin-4-ylpyrimidin-4(3H)-one]
23 | 81% | Cn1c(NC2CCCN(S(=O)(=O)Cc3ccccc3)CC2)nc(-c2ccncc2)cc1=O (stereo not shown) [Example 192, 2-{[1-(Benzylsulfonyl)azepan-4-yl]amino}-3-methyl-6-pyridin-4-ylpyrimidin-4(3H)-one]
24 | 80% | Cn1c(N2CC[C@@H]3CN(S(=O)(=O)Cc4ccccc4)C[C@@H]32)nc(-c2ccncc2)cc1=O [Example 193, 2-[(3a,R6,aR)-5-(Benzylsulfonyl)hexahydro-pyrrolo[34-b]pyrrol-1(2H)-yl]-3-methyl-6-pyridin-4-ylpyrimidin-4(3H)-one]
25 | 90% | CN(c1nc(-c2ccncc2)cc(=O)n1C)C1CCN(S(=O)(=O)Cc2ccccc2)C1 (stereo not shown) [Example 194, 2-{[1-(Benzylsulfonyl)pyrrolidin-3-yl](methyl)amino}-3-methyl-6-pyridin-4-ylpyrimidin-4(3H)-one]
